Test results published in patent publication US5498522A, “Methods for the use of spermidine/spermine N^1 -acetyltransferase as a prognostic indicator and/or a tumor response marker” (priority 1993, dated 1996).

Tests used:
[1] = system: spermidine/spermine N^1 -acetyltransferase (SSAT); experiment: SSAT induction in human tumor xenografts in athymic mice in-vivo; details: for level of induction of SSAT: 40 mg/kg every 8 hours for 5 days, 16 hours after final injection; for Avg. SSAT Activity: measured 24 hours after final treatment (Table 8)
Protocol: For the in-vivo treatment, 10^7 cultured MALME-3 melanoma cells were injected subcutaneously into 20 gram female nude athymic mice. After four in-vivo passages, tumor was removed and 40-50 mm^3 fragments were selected for implantation into mice via subcutaneous trocar implantation. Mice developing palpable tumors of a similar size were divided into different treatment groups comprising mice per group. Following treatment of the mice with a dosage approaching the maximally tolerated dose of the respective bis-ethyl spermine analog, the tumor cells comprising the human xenograft were removed and assayed for SSAT induction. […] Also indicated in Table 1, the level of SSAT induction in-vivo by BESPM was less than 20 fold that of BEHSPM, and the level of SSAT induction in-vivo by BENSPM was about 6 fold greater than that of BESPM. Thus, a conclusion from the results depicted in Table 1 is the rank order in effectiveness of the his-ethyl spermine analogs to induce SSAT levels in-vitro correlated well with their effectiveness to induce SSAT levels in-vivo.
In accordance with the above methods for assaying the induction of SSAT levels in tumor cell lines treated in-vitro and xenografts treated in-vivo, the induction pattern also correlates fairly well amongst different clonal lines of a particular tumor type. This can be illustrated with melanoma clonal lines LOX, SH-1, PANUT-3, and MALME-3.
In accordance with the above methods for assaying the induction of SSAT levels in tumor cell lines treated in-vitro and xenografts treated in-vivo, the induction pattern also correlates fairly well amongst carcinomas of solid organs. This can be illustrated with malignant clonal lines A121, A549, and HT29.
Note that the highest drug dosages for each analog approach the maximally tolerated dosage for that particular analog (for example, BEHSPM at 6 mg/kg; BESPM at […]; and BENSPN at 80 mg/kg were tolerated by treated animals, whereas higher doses were toxic). Tumor cells comprising the human xenograft were removed from two animals of each group and assayed for SSAT induction. […] Thus, the antitumor activity for these three analogs correlated with their ability to induce SSAT activity in the same tumor cells growing in-vitro and in-vivo, with the rank order of effectiveness in inducing SSAT levels being: BENSPM>BESPM>BEHSPM (Table 4).
Additional studies were performed using BENSPM treatment of human xenografts to determine if there exists a correlation between antitumor activity and SSAT induction in-vivo. SSAT activity was measured using cell extracts obtained by sonication, in 5 mMN-2 hydroxypiperazine-N^2 -ethanesulfonic acid (pH 7.2) containing 1 mM dithiothreitol, of tumor biopsy from treated mice, and tumor biopsy from control mice. The cytosolic extract resulting from a 1 hour centrifugation at 35,000 rpm in a Spinco 40 rotor was used as the source of the enzyme for the assay of SSAT activity. The cytosolic extract was incubated with 10 μmol HEPES buffer, pH7.8, 0.15 nmol spermidine, and 0.5 nmol [1-^14 C] acetylCoenzyme A, in a final volume of 50 μl, for 5 minutes at 37° C. The reaction was stopped by chilling, the addition of 20 μl of 0.5 M NH2 OH.Cl, and heating in a boiling water bath for 3 minutes. After centrifugation to remove precipitated protein, 50 μl of the reaction was spotted on a disc of P-81 phosphocellulose and counted for radioactivity. Protein concentration was also measured so that enzyme activity was expressed as picomoles of acetylspermine synthesized per minute per milligram of protein.
To illustrate this embodiment, SSAT activity was analyzed in tumor tissue and normal tissue from 2 mice following BENSPM treatment of 5 mice at 40 mg/kg, three times daily, for 6 days (Porter et al., 1993, supra). […]

[2] = tolerated dose / host toxicity in xenograft-bearing mice; details: mouse, in vivo, every 8 hours for 6 days, read-out: tolerated dose (higher doses were toxic)
Protocol: […] where 1 represents length; w--width; and h--height. Tumor sizes were monitored 2 times/week until the median volume (V=0.4(a^2 ×b) where a is the smaller of the two perpendicular tumor diameters). As an indication of drug toxicity, animal weights were also recorded at the time of tumor volume measurement. Statistical analyses were performed on mouse tumor size and weight parameters by using the Mann-Whitney test.
As illustrated in Table 1 with MALME-3 human melanoma cells, the rank order effectiveness of three polyamine analogs in inducing SSAT levels both in-vitro and in-vivo were BENSPM>BESPM>BEHSPM, with substantial differences in induction between them. The same three polyamine analogs were analyzed for their effectiveness in inducing a potent antitumor response in-vivo. Mice developing palpable tumors of a similar size were divided into different treatment groups comprising 5 mice per treatment group, and 10 control mice per treatment group. The treatment groups, and treatment regimen. per group, were as follows: BEHSPM: administered every 8 hours for a 6 day period with group 1 receiving 1.5 mg/kg; group 2 receiving 3.0 mg/kg; and group 3 receiving 6.0 mg/kg.
BESPM: administered every 8 hours for a 6 day period with group 1 receiving 10 mg/kg; group 2 receiving 20 mg/kg; and group 3 receiving 40 mg/kg.
BENSPM: administered every 8 hours for a 6 day period with group 1 receiving 20 mg/kg; group 2 receiving 40 mg/kg; and group 3 receiving 80 mg/kg.
Note that the highest drug dosages for each analog approach the maximally tolerated dosage for that particular analog (for example, BEHSPM at 6 mg/kg; BESPM at 20 mg/kg; and BENSPN at 80 mg/kg were tolerated by treated animals, whereas higher doses were toxic). Tumor cells comprising the human xenograft were removed from two animals of each group and assayed for SSAT induction. […]

[3] = system: ornithine decarboxylase (ODC); experiment: ODC activity in human melanoma xenografts in-vivo
[4] = system: polyamine pools of host tissue; experiment: polyamine pools in host tissue of treated mice; assay type: in vivo, mouse; parameters: unit not given here; details: 40 mg/kg
[5] = system: spermidine/spermine N^1 -acetyltransferase (SSAT); details: cited from earlier work
[6] = system: MALME-3 human melanoma cells; experiment: growth of MALME-3 melanoma cells in-vitro (FIG. 5); assay type: cell-based; details: MALME-3, 10 μM BESPM, 48 hours
Protocol: As mentioned previously, cells from malignant solid tumor respond to polyamine analog therapy heterotypically. SSAT induction and antitumor response may vary not only among the solid tumor tissue type, but also with the clonal line of tumor of a particular solid tissue type. However, a correlation between the level of induction of SSAT and the potency of antitumor response has been observed in tumors of a particular solid tissue type. For example, seven human melanoma cell lines were assayed in-vitro for their response, as determined by cell growth and level of SSAT induction, to 10 μM BESPM at 48 hours post-treatment. As summarized in FIG. 5, growth among the cell lines decreases as SSAT induction increases.

polyamine uptake = details: cited from earlier work
[7] = MALME-3 xenograft, maximally tolerated dose, every 8 hours for 6 days

CCNCCCCNCCCCNCCCCNCC [BEHSPM, N^1,N^14 -bis(ethyl)homospermine]
SSAT induction in-vivo [1, 7]: 125 pmol/min/mg | MTD at 144 h [2]: 6 mg/kg

CCNCCCNCCCNCCCNCC [BENSPM, N^1,N^11 -bis(ethyl)norspermine]
SSAT induction in-vivo ([1]; A121 xenograft, BENSPM 40 mg/kg 3x/day 6 days, 16 hours post-treatment): 2,905 pmol/min/mg | SSAT activity ([1]; A121 xenograft, measured 24 hours after final treatment (Table 9)): 2905 pmol/min/mg | SSAT induction in-vivo ([1]; A549 xenograft, BENSPM 40 mg/kg 3x/day 6 days, 16 hours post-treatment): 14,295 pmol/min/mg | SSAT activity ([1]; A549 xenograft, measured 24 hours after final treatment (Table 9)): 14295 pmol/min/mg | SSAT induction in-vivo ([1]; HT29 xenograft, BENSPM 40 mg/kg 3x/day 6 days, 16 hours post-treatment): 3,535 pmol/min/mg | SSAT activity ([1]; HT29 xenograft, measured 24 hours after final treatment (Table 9)): 3535 pmol/min/mg | level of induction of SSAT ([1]; LOX xenograft): 160 pmol/mg/min | SSAT induction in-vivo ([1]; LOX xenograft, BENSPM 40 mg/kg 3x/day 6 days, 16 hours post-treatment): 160 (200/115) pmol/min/mg | Avg. SSAT Activity ([1]; LOX xenograft): 157 pmol/min/mg | Avg. SSAT Activity ([1]; MALME-3M xenograft): 13,710 pmol/min/mg | SSAT induction in-vivo relative to BESPM ([1]; MALME-3 xenograft): about 6 fold | level of induction of SSAT ([1]; MALME-3 xenograft): 24,018 pmol/mg/min | SSAT induction in-vivo ([1]; MALME-3 xenograft, BENSPM 40 mg/kg 3x/day 6 days, 16 hours post-treatment (Table 2)): 13,710 (11,490/15,930) pmol/min/mg | SSAT induction in-vivo [1, 7]: 15,700 pmol/min/mg | SSAT activity ([1]; PANUT-3 tumor, 80 mg/kg, 2 wks post-treatment): 130 pmol/min/mg | SSAT induction in-vivo ([1]; PANUT-3 xenograft, BENSPM 40 mg/kg 3x/day 6 days, 16 hours post-treatment): 25,575 (23,140/22,010) pmol/min/mg | Avg. SSAT Activity ([1]; PANUT-3 xenograft): 22,750 pmol/min/mg | SSAT induction in-vivo ([1]; SH-1 xenograft, BENSPM 40 mg/kg 3x/day 6 days, 16 hours post-treatment): 7,150 (7,495/6,810) pmol/min/mg | Avg. SSAT Activity ([1]; SH-1 xenograft): 7,150 pmol/min/mg | SSAT induction, relative ([1]; treated in-vitro and in-vivo, compared to two other analogs): greatest induction of SSAT | ODC levels ([3]; MALME-3 study): ODC and SAMDC levels were not suppressed | ODC levels ([3]; PANUT-3 study): ODC and SAMDC levels were not suppressed | PUT pool ([4]; kidney, 2 wks post-treatment): 20/20 | SPD pool ([4]; kidney, 2 wks post-treatment): 210/210 | SPM pool ([4]; kidney, 2 wks post-treatment): 360/370 | PUT pool ([4]; kidney, 16 hrs post-treatment): 100/40 | SPD pool ([4]; kidney, 16 hrs post-treatment): 100/100 | SPM pool ([4]; kidney, 16 hrs post-treatment): 260/250 | PUT pool ([4]; liver, 2 wks post-treatment): 20/20 | SPD pool ([4]; liver, 2 wks post-treatment): 530/530 | SPM pool ([4]; liver, 2 wks post-treatment): 400/330 | PUT pool ([4]; liver, 16 hrs post-treatment): 90/100 | SPD pool ([4]; liver, 16 hrs post-treatment): 80/90 | SPM pool ([4]; liver, 16 hrs post-treatment): 170/200 | MTD at 144 h [2]: 80 mg/kg | SSAT induction in-vitro, PANUT-3 versus MALME-3 ([5]; BENSPM): induced to greater levels in PANUT-3 than in MALME-3

CCNCCCNCCCCNCCCNCC [BESPM, N^1,N^12-bis(ethyl)spermine]
SSAT induction in-vivo relative to BEHSPM ([1]; MALME-3 xenograft): less than 20 fold | MTD at 144 h [2]: 20 mg/kg | growth inhibition (FIG. 5) [6]: greatest growth inhibition | SSAT levels after treatment ([5]; MALME-3, in-vitro): extreme induction of SSAT levels | polyamine uptake (polyamine uptake): suppresses polyamine uptake
